In the first assay the target is T1, human LPAR1 (Homo sapiens, UniProt Q92633).
T1 construct: host or cells: TangoEDG2-bla U2OS cells
T1 sequence (Q92633 whole entry): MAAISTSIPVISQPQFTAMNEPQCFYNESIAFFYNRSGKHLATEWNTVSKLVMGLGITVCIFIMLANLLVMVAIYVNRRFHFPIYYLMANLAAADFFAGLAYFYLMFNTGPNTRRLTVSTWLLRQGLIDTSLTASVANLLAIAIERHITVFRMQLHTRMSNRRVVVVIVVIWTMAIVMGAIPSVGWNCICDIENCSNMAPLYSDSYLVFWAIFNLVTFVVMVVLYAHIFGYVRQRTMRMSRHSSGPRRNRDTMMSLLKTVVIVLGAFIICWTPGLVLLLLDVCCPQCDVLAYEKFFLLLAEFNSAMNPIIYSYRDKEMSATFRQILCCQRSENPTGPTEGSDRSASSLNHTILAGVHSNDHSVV
As to the kind of experiment: Arrestin assay (Arrestin Reporter EDG2-bla U2OS), inhibition of LPA-stimulated signal. In kind it is cell-based. As to conditions: TangoEDG2-bla U2OS cells expressing human LPAR1; 0.25 μM LPA; read-out: Arrestin Reporter EDG2-bla U2OS Human IC50. The method, boiled down: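 TangoEDG2-bla U2OS cells (1×10^4/well, plated 18-20 h) were preincubated 1 h at 37 °C with compound (12-point, 3-fold, 10 μM to 0.00006 μM), then stimulated 3 h with 0.25 μM LPA final. LiveBLAzer FRET B/G 460/530 nm emission ratio gave % inhibition; IC50 from 4-parameter variable-slope fit.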
Consider `CC(C)c1ccnn1C1(C(=O)Nc2ccc(Cl)cc2OC(F)F)CCN([C@H]2C[C@H](C(=O)O)C2)CC1` [Compound 62, (1r,3r)-3-[4-[[4-chloro-2-(difluoromethoxy)phenyl]carbamoyl]-4-(5-isopropylpyrazol-1-yl)-1-piperidyl]cyclobutanecarboxylic acid], for which the 50% inhibitory concentration (IC50) was 51.5 nM.

The same assay, now with this note: TangoEDG2-bla U2OS cells expressing human LPAR1; 0.25 μM LPA; read-out: Arrestin Reporter EDG2-bla U2OS Human Merged IC50.
In the case of `CC(C)c1ccnn1C1(C(=O)Nc2ccc(Cl)cc2OC(F)F)CCN(CC(C)(C(=O)O)C2CCOCC2)CC1` (stereo not drawn) [Compound 52, 3-[4-[[4-chloro-2-(difluoromethoxy)phenyl]carbamoyl]-4-(5-isopropylpyrazol-1-yl)-1-piperidyl]-2-methyl-2-tetrahydropyran-4-yl-propanoic acid], the IC50 stood at 70.5 nM.

Regarding `CC(C)c1ccnn1C1(C(=O)Nc2ccc(Cl)cc2OC(F)F)CCN(CC2(C(=O)O)CCN(C(=O)CC34CC(C3)C4)CC2)CC1` [Compound 53, 1-[2-(1-bicyclo[1.1.1]pentanyl)acetyl]-4-[[4-[[4-chloro-2-(difluoromethoxy)phenyl]carbamoyl]-4-(5-isopropylpyrazol-1-yl)-1-piperidyl]methyl]piperidine-4-carboxylic acid], the IC50 is 13.5 nM.

For `COCCC(=O)N1CCC(CN2CCC(C(=O)Nc3ccc(Cl)cc3OC(F)F)(n3nccc3C(C)C)CC2)(C(=O)O)CC1` [Compound 54, 4-[[4-[[4-chloro-2-(difluoromethoxy)phenyl]carbamoyl]-4-(5-isopropylpyrazol-1-yl)-1-piperidyl]methyl]-1-(3-methoxypropanoyl) piperidine-4-carboxylic acid], the 50% inhibitory concentration (IC50) was determined as 56.5 nM.

Regarding `CCOC(=O)N1CC[C@@](CN2CCC(C(=O)Nc3ccc(Cl)cc3OC(F)F)(n3nccc3C(C)C)CC2)(C(=O)O)C1` [Compound 55, (3S)-3-[[4-[[4-chloro-2-(difluoromethoxy)phenyl]carbamoyl]-4-(5-isopropylpyrazol-1-yl)-1-piperidyl]methyl]-1-ethoxycarbonyl-pyrrolidine-3-carboxylic acid], the IC50 amounted to 4.57 nM.

With `CCOC(=O)N1CC[C@](CN2CCC(C(=O)Nc3ccc(Cl)cc3OC(F)F)(n3nccc3C(C)C)CC2)(C(=O)O)C1` [Compound 56, (3R)-3-[[4-[[4-chloro-2-(difluoromethoxy)phenyl]carbamoyl]-4-(5-isopropylpyrazol-1-yl)-1-piperidyl]methyl]-1-ethoxycarbonyl-pyrrolidine-3-carboxylic acid], the IC50 is 6.73 nM.

In the case of `CC(C)c1ccnn1C1(C(=O)Nc2ccc(Cl)cc2OC(F)F)CCN(CC2(C(=O)O)CCN(C(=O)C34CC(C(C)C)(C3)C4)CC2)CC1` [Compound 57, 4-[[4-[[4-chloro-2-(difluoromethoxy)phenyl]carbamoyl]-4-(5-isopropylpyrazol-1-yl)-1-piperidyl]methyl]-1-(3-isopropylbicyclo[1.1.1]pentane-1-carbonyl)piperidine-4-carboxylic acid], the IC50 is 6.83 nM.

In the case of `COC1(C(=O)N2CCC(CN3CCC(C(=O)Nc4ccc(Cl)cc4OC(F)F)(n4nccc4C(C)C)CC3)(C(=O)O)CC2)CC1` [Compound 58, 4-[[4-[[4-chloro-2-(difluoromethoxy)phenyl]carbamoyl]-4-(5-isopropylpyrazol-1-yl)-1-piperidyl]methyl]-1-(1-methoxycyclopropanecarbonyl) piperidine-4-carboxylic acid], the half-inhibitory concentration (IC50) was 75.6 nM.

With `COCC1(C(=O)N2CCC(CN3CCC(C(=O)Nc4ccc(Cl)cc4OC(F)F)(n4nccc4C(C)C)CC3)(C(=O)O)CC2)CCC1` [Compound 59, 4-[[4-[[4-chloro-2-(difluoromethoxy)phenyl]carbamoyl]-4-(5-isopropylpyrazol-1-yl)-1-piperidyl]methyl]-1-[1-(methoxymethyl)cyclobutanecarbonyl] piperidine-4-carboxylic acid], the IC50 is 26.4 nM.

Consider `COCC(OC)C(=O)N1CCC(CN2CCC(C(=O)Nc3ccc(Cl)cc3OC(F)F)(n3nccc3C(C)C)CC2)(C(=O)O)CC1` (stereo not drawn) [Compound 60, 4-[[4-[[4-chloro-2-(difluoromethoxy)phenyl]carbamoyl]-4-(5-isopropylpyrazol-1-yl)-1-piperidyl]methyl]-1-(2,3-dimethoxypropanoyl) piperidine-4-carboxylic acid], for which the IC50 worked out at 91.2 nM.

For `CC(C)c1ccnn1C1(C(=O)Nc2ccc(Cl)cc2OC(F)F)CCN(CC2(C(=O)O)Cc3ccccc3C2)CC1` [Compound 63, 2-[[4-[[4-chloro-2-(difluoromethoxy)phenyl]carbamoyl]-4-(5-isopropylpyrazol-1-yl)-1-piperidyl]methyl]indane-2-carboxylic acid], the IC50 turned out to be 4.5 nM.

Regarding `CCC(=O)N1CC(CN2CCC(C(=O)Nc3ccc(Cl)cc3OC(F)F)(n3nccc3C(C)C)CC2)(C(=O)O)C1` [Compound 64, 3-[[4-[[4-chloro-2-(difluoromethoxy)phenyl]carbamoyl]-4-(5-isopropylpyrazol-1-yl)-1-piperidyl]methyl]-1-propanoyl-azetidine-3-carboxylic acid], the IC50 was found to be 51.5 nM.

Turning to `CC(C)c1ccnn1C1(C(=O)Nc2ccc(Cl)cc2OC(F)F)CCN(CC2(C(=O)O)CCS(=O)(=O)CC2)CC1` [Compound 65, 4-[[4-[[4-chloro-2-(difluoromethoxy)phenyl]carbamoyl]-4-(5-isopropylpyrazol-1-yl)-1-piperidyl]methyl]-1,1-dioxo-thiane-4-carboxylic acid], the IC50 came out at 9.87 nM.

For `CC(C)c1c(F)cnn1C1(C(=O)Nc2ccc(Cl)cc2OC(F)F)CCN(CC2(C(=O)O)CCOCC2)CC1` [Compound 66, 4-[[4-[[4-chloro-2-(difluoromethoxy)phenyl]carbamoyl]-4-(4-fluoro-5-isopropyl-pyrazol-1-yl)-1-piperidyl]methyl]tetrahydropyran-4-carboxylic acid], the 50% inhibitory concentration (IC50) turned out to be 22.8 nM.

In the case of `CCC(CC)(CN1CCC(C(=O)Nc2ccc(Cl)cc2OC(F)F)(n2nccc2C(C)C)CC1)C(=O)O` [Compound 67], the IC50 came out at 20.9 nM.

`COC12CC(C(=O)N3CCC(CN4CCC(C(=O)Nc5ccc(Cl)cc5OC(F)F)(n5nccc5C(C)C)CC4)(C(=O)O)CC3)(C1)C2` [Compound 68, 4-[[4-[[4-chloro-2-(difluoromethoxy)phenyl]carbamoyl]-4-(5-isopropylpyrazol-1-yl)-1-piperidyl]methyl]-1-(3-methoxybicyclo[1.1.1]pentane-1-carbonyl)piperidine-4-carboxylic acid]: the IC50 stood at 65.6 nM.

Turning to `CC(C)c1ccnn1C1(C(=O)Nc2ccc(Cl)cc2OC(F)F)CCN(CC2(C(=O)O)CCN(C(=O)C34CC(C3)C4)CC2)CC1` [Compound 69, 1-(bicyclo[1.1.1]pentane-1-carbonyl)-4-[[4-[[4-chloro-2-(difluoromethoxy)phenyl]carbamoyl]-4-(5-isopropylpyrazol-1-yl)-1-piperidyl]methyl]piperidine-4-carboxylic acid], the IC50 was 14.8 nM.

Consider `CC(C)c1ccnn1C1(C(=O)Nc2ccc(Cl)cc2OC(F)F)CCN(CC2(C(=O)O)CC3CCC2C3)CC1` (stereo not drawn) [Compound 70, 2-[[4-[[4-chloro-2-(difluoromethoxy)phenyl]carbamoyl]-4-(5-isopropylpyrazol-1-yl)-1-piperidyl]methyl]norbomane-2-carboxylic acid], for which the IC50 was determined as 11.4 nM.

As usually defined, the IC50 is the concentration at which inhibition is half-maximal.

The record behind these values is patent publication US20260102383A1, “LPAR1 Inhibitors” (AbbVie Inc., priority 2024, published 2026).
